Legend:
[1] = Hydrolytic stability in KPi buffer without thiol (NMR); format: physicochemical; conditions: for % degradation: over 12 hours, 50 mM KPi, footnote a: crashing out of solution, no degradation product; for hydrolysis in aqueous buffer (in words): buffer in the absence of GSH
Description: NMR studies: rate constant determination and hydrolytic stability. 850 µL of 50 mM Kpi buffer solution (pH 8.2 or 7), 20 µL of the appropriate pyrimidine stock s olution (100 mM in DMSO -d6), 20 µL of TMSP stock solution (22.2 mM in DI water), 30 µL DMSO -d6, and 80 µL of GSH stock solution (0.25 M in DI water, reactivity only) were successively added/mixed at room temperature, final pH 7.0 or 6.5 (Table S1). 600 µL of this freshly prepared solution was poured into an NMR tube and immediately […]
transferred to the NMR instrument for acquisition. 1H spectra (16 scans) were recorded every 10 minutes under water suppression conditions. Following acquisition, spectra were analysed using […]
order reaction rate constants (k’).

β-catenin ARD = molecular target: T1, β-catenin ARD (Homo sapiens, UniProt P35222); test: Differential scanning fluorimetry (DSF); format: binding; conditions: 100 μM compound; 8 µM β-cat; read-out: Protein thermal stability ΔTm
T1 construct: vector pLipK-ARD (residues 150 – 662) was used; 6xHis-Lip (6xHis, lipoyl domain); made in house; host or cells: E. coli BL21(DE3) pRARE2
T1 sequence (P35222 150-662): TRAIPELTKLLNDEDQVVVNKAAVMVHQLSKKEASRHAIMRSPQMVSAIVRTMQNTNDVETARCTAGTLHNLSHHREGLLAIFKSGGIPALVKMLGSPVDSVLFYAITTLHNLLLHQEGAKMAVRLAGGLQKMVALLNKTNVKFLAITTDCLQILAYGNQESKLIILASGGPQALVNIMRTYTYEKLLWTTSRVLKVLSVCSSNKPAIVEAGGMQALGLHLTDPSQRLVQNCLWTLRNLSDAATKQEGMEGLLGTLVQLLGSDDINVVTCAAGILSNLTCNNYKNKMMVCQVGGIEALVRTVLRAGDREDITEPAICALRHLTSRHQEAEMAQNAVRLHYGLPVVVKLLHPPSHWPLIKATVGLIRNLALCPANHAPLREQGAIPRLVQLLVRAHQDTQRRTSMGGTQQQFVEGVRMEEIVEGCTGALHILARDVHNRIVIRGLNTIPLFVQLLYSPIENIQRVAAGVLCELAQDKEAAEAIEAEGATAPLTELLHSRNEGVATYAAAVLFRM
Text: We also probed the general effect of 2-SPs on protein stability by using differential scanning fluorimetry (DSF). […] Mutants of the 25 kDa DNA-binding domain of the tumor suppressor p53 are notorious for their reduced thermal stability and denaturation/aggregation propensity.[37] The 56 kDa armadillo domain (ARD) of β-catenin mediates canonical Wnt signaling and plays a central role in embryogenesis and tissue homeostasis.[38] FGE (37 kDa) is the only known activator of human sulfatases, and its stability is susceptible to modification of its cysteines.[39] […]
Human β-catenin armadillo domain. β-catenin sequence was amplified by PCR (KOD DNA polymerase, Merck Millipore) from plasmid templates and cloned into bacterial expression vectors by restriction - free cloning. All plasmids were verified by sequencing. For protein pro duction, bacterial expression vector pLipK-ARD (residues 150 – 662) was used. 6xHis-Lip-tagged recombinant proteins were purified from BL21(DE3) pRARE2 E. coli bacterial strains. Bacteria were grown in LB media supplemented with appropriate antibiotic to OD600 0.6, then dropped to a lower temperature (16 – 24 °C) and induced at OD600 0.8 by addition of 0.4 mM isopropyl β -D-1-thiogalactopyranoside (IPTG). Proteins were expressed overnight and bacteria were subsequently harvested by centrifugation, cell pelle ts shock-frozen in liquid nitrogen and stored at -80°C until use. Cell pellets were re -suspended in lysis buffer (25 mM Tris -HCl pH 8, 200 mM NaCl, 20 mM imidazole, 10 μg/mL DNAse, EDTA -free protease inhibitor cocktail) and lysed with an Emulsiflex C-3 (Avestin). Lysates were cleared by ultracentrifugation (140,000x rcf, 30 minutes, 4°C) and mixed with Ni-NTA agarose. Beads were washed multiple times with lysis buffer, and 6xHisLip - tagged protein was eluted with lysis buffer supplemented with 500 mM imidazo le. The protein was further purified by SEC on a HiPrep26/60 G200 (GE Healthcare) into the final buffer of 200 mM NaCl, 25 mM Tris pH 7.4, 0.06% NaN3, 1 mM DTT, and protein purity was assessed by SDS -PAGE. Pure protein fractions were concentrated using a 1 0 kDa MWCO Vivaspin 20 concentrator (Sartorius) to 17 – 28 mg/mL, then shock frozen as droplets in liquid nitrogen and stored at -80°C until use. […]

p53-Y220C DBD = molecular target: T2, p53-Y220C DBD (Homo sapiens, UniProt P04637, M133L/N239Y/N268D/V203A/Y220C); test: Protein arylation by ESI mass spectrometry; format: binding
T2 construct: (residues 94-312); 6xHis/lipoyl domain/TEV protease cleavage site (N, cleaved yes); made in house; host or cells: E. coli C41
Description: In mass spectrometry experiments, we incubated 50 μM purified p53-Y220C DBD in KPi buffer at varying pH’s (6.0–8.0), temperatures (0 and 20 °C), and equivalents of 2-SPs (20–100). Representative 2-SPs were selected to span a broad reactivity range to determine whether trends observed in GSH in vitro assays translate to relative rates of modification of solvent exposed cysteines in folded proteins. […] The same could also be achieved with only 20 equiv of reagent by increasing the temperature to 20 °C, or raising the pH to 8.0. This is an important result because late-stage protein functionalization with bromo- and iodo-(hetero)aromatic motifs is challenging and inaccessible by metal-catalyzed arylation methodologies due to dehalogenation and/or off-target specificity. The introduction of an iodo-(hetero)aromatic motif on the protein surface facilitates drastically the crystal structure resolution with a sharp variation of density. […] Overall, we observed good correlation between GSH and protein experiments.
Figure 4 Biophysical and structural characterization of protein cysteine arylation by 2-SPs. […] Stoichiometry, reaction time/temperature, and pH are indicated in each case. X axis: m/z (Da). Y axis: normalized intensities as a percentage of the most intense peak. Middle: Structure of the modified Y220C mutant (green) superimposed onto the structure of the unmodified protein (gray, PDB entry 6SHZ)[40] showing the region around modified C182 (E) and C277 (F). Hydrogen bonds formed by the pyrimidine are highlighted as dashed yellow lines. 2Fo – Fc electron density maps are shown at a contour level of 1.3σ for segments of chain B including the modified residues C182 and C277. Bottom (F): Protein thermal stability (ΔTm, °C) of p53-Y220C, β-catenin ARD. and FGE, determined by DSF in the presence of 100 μM 2-SP derivatives. […]

| Compound | % degradation ([1]; pH 8.2) [%] | ΔTm at 100 µM (β-catenin ARD) [°C] | hydrolysis in aqueous buffer (in words) [1] | % degradation ([1]; pH 7.0) [%] | melting point [°C] | protein arylation by ESI-MS (in words) (p53-Y220C DBD; 100 equiv, 0 °C, pH 7.2) | time to selective double arylation (p53-Y220C DBD; 100 equiv, 0 °C, pH 7.2) [h] | protein modification by ESI-MS (in words) (p53-Y220C DBD; 50 μM protein, all conditions tested, even after 4 h at 20 °C) |
| --- | --- | --- | --- | --- | --- | --- | --- | --- |
| Cc1ccnc(S(C)(=O)=O)n1 [4c] | 10 | -0.1 ± 0.1 | – | – | – | – | – | – |
| CS(=O)(=O)c1nccc(C(F)(F)F)n1 [4l] | 65 | -1.7 ± 0.4 | partial, slow hydrolysis | 17 | 82 | – | – | – |
| COc1ccnc(S(C)(=O)=O)n1 [4b] | – | -0.1 ± 0.1 | – | – | 60 | – | – | – |
| CS(=O)(=O)c1ncc(Br)cn1 [4t] | < 5 | -0.7 ± 0.1 | – | < 5 | – | completely selective double arylation | 2.5 | – |
| CS(=O)(=O)c1ncccn1 [4q, 2-methylsulfonylpyrimidine] | < 5 | -0.1 ± 0.1 | – | < 5 | – | – | – | – |
| CS(=O)(=O)c1nccc(N)n1 [4g] | – | -0.1 ± 0.1 | – | 5 | 166 | – | – | – |
| O=[N+]([O-])c1ccc(S(=O)(=O)c2ncccn2)cc1 [5f] | 100 | -0.1 ± 0.1 | – | 100 | 225 | – | – | – |
| CS(=O)(=O)c1ncc(I)cn1 [4u] | 14 | -0.1 ± 0.1 | – | < 5 | 56 | completely selective double arylation | – | – |
| COc1cc(OC)nc(S(C)(=O)=O)n1 [4f, 4,6-dimethoxy-2-methylsulfonylpyrimidine] | – | -0.1 ± 0.1 | – | – | – | – | – | – |
| Nc1ccc(S(=O)(=O)c2ncccn2)cc1 [5b] | – | -0.1 ± 0.1 | – | – | 200 to 201 | – | – | – |
| O=S(=O)(NCc1ccccc1)c1ncccn1 [5g] | < 5 | 0.3 ± 0.3 | – | – | – | – | – | – |
| CS(=O)(=O)c1nccc(-c2ccccc2)n1 [4e] | 50 | -0.1 ± 0.1 | – | < 5 | – | – | – | – |
| CS(=O)(=O)c1nccc(C(N)=O)n1 [4j] | – | -0.3 ± 0.3 | – | – | – | – | – | – |
| O=S(=O)(Oc1c(F)c(F)c(F)c(F)c1F)c1ncccn1 [5h] | 100 | -0.1 ± 0.1 | – | 100 | – | – | – | – |
| CCCCS(=O)(=O)c1ncccn1 [5c] | – | -0.1 ± 0.1 | – | – | – | – | – | – |
| Cc1cc(C)nc(S(C)(=O)=O)n1 [4a] | – | -0.1 ± 0.1 | – | < 5 | – | – | – | could not detect any protein modification |
| CS(=O)(=O)c1ncc(Br)c(C(=O)O)n1 [4i] | – | -0.1 ± 0.1 | – | – | – | – | – | – |
| O=S(=O)(c1ccccc1)c1ncccn1 [5d] | 10 | -0.1 ± 0.1 | – | 12 | – | – | – | – |
| CS(=O)(=O)c1nccc(C(=O)O)n1 [4d] | < 5 | -0.1 ± 0.1 | – | < 5 | 115 to 118 | – | – | – |
| CC(C)(C)S(=O)(=O)c1ncccn1 [5a] | – | -0.1 ± 0.1 | – | < 5 | 58 | – | – | – |
| CS(=O)(=O)c1ncc(C(F)(F)F)cn1 [4x] | 100 | -3.1 ± 0.6 | partial, slow hydrolysis | 97 | – | – | – | – |
| COC(=O)c1ccnc(S(C)(=O)=O)n1 [4k] | 100 | -0.1 ± 0.1 | – | 77 | 80 | – | – | – |
| CS(=O)(=O)c1ncc(C(=O)O)cn1 [4v] | – | -1.3 ± 0.1 | – | 18 | 138 | – | – | – |
| CS(=O)(=O)c1ncc(-c2ccccc2)cn1 [4p] | 78 | -0.1 ± 0.1 | – | 78 | 180 | – | – | – |
| O=S(=O)(CC(F)(F)F)c1ncccn1 [5e] | 100 | -6.9 ± 1 | – | 100 | 91 to 92 | – | – | – |
